SMILES strings stand for the structures. In brackets after ≈: the same amount, converted by molar mass. Where a SMILES comes first, the peptide text is derived from it.

Series [1] relates to Lacticaseibacillus casei, ATCC 334. Description: MIC and MBC/MFC test. It counts as cell-based. As to the method:
(§1) The antimicrobial properties of synthesized peptides against bacteria and fungi were evaluated using minimum inhibitory concentration (MIC) and minimum bactericidal/fungicidal concentration (MBC/MFC) tests (Wiegand et al. 2008). The tested species include Streptococcus mutans, UA159; Lacticaseibacillus casei, American Type Culture Collection (ATCC) 334; and Candida albicans, ATCC 90028. A 10 μL aliquot of bacterial culture (10^6 CFU/mL) in brain heart infusion (BHI) broth was added to 100 μL serial two-fold dilutions of experimental solutions. The optical density values at 660 nm were measured after 18 h of incubation. To determine the MBC, 10 μL of bacterial culture was taken from the well of MIC, and wells before and after the well of MIC, and transferred to blood agar. The test protocol for fungi was similar: the culture medium was a Roswell Park Memorial Institute (RPMI) 1640 Medium, the absorbance was measured at 520 nm, and Sabouraud dextrose agar was used for the MFC test. Chlorhexidine and medium were used as the positive and negative controls.

Series [2] relates to Streptococcus mutans, UA159. Description: MIC and MBC/MFC test. The series is classed as cell-based. Here is the method: as §1
Series [3] in a line: Stability in human saliva (HPLC). The series is classed as in vitro ADME. As to the method: The stability of peptides in human saliva was investigated by testing the remaining peptide concentration via HPLC system (Waters Pacific Pte Ltd, Singapore). The saliva with peptides was mixed and incubated for 0, 15, 30, 45 and 60 min. The test was processed following a previous experimental protocol (Huang et al. 2016).

Series [4] concerns Human gingival fibroblast (HGF-1) cells. Description: Biocompatibility, cytotoxicity by Cell Counting Kit-8 Assay. The series is classed as cell-based. Here is the method:
The biocompatibility of GAPI was evaluated by cytotoxicity assay using Cell Counting Kit-8 Assay (CCK-8, Apexbio, MA, USA) (Zhang et al. 2019). Human gingival fibroblast (HGF-1, Otwo Biotech Inc., China) cells (1×10^5/mL) were cultured and treated with GAPI. The cells cultured with the only medium were negative controls. The optical density values indicating the number of viable cells was measured at 450 nm after 24 h of incubation.
For orientation: Formazan colour is commonly taken as a measure of viable cells.

Series [5] has as its system S. mutans biofilm (ATCC 35668) on dentine blocks. Description: Antibiofilm effect on dentine, biofilm remineralization cycling model (CLSM, CFU). It counts as cell-based, Streptococcus mutans. The following applies: 160 μM GAPI, 7 days cycling, n = 8. The text has this:
Dentine slices, 2 mm thick, were cut from sound extracted third molars. Ultra-fine 4000-grit sandpaper was used to polish these slices. Slices with defects were eliminated based on a stereomicroscope observation. A total of forty dentine slices were selected. Each slice was separated into two blocks and assigned to two groups. Nail varnish was used to coat half of the blocks as an internal control. S. mutans American Type Culture Collection 35668 was utilized in the present study. All the dentine blocks were placed into S. mutans culture (10^8 cells/mL) in a brain-heart infusion (BHI) broth containing 5% glucose to generate artificial caries. After a 3-day anaerobic culture at 37° C., the depth of the caries lesion surface was around 96 μm, which was observed using micro-computed tomography (micro-CT). […]
CLSM (Fluoview FV 1000, Olympus, Tokyo, Japan) was utilized to capture images to assess the S. mutans biofilm viability (n=8 for each group). […] The red-green ratio represented the dead-live ratio calculated using Image J version 1.53 t (National Institute of Health, Bethesda, MD, USA).
To determine the S. mutans biofilm growth kinetics, the colony-forming units (CFUs) were counted (n=8 for each group). […] All the plates were cultured anaerobically for 48 h at 37° C. before the CFUs were counted. The log CFU was calculated for a statistical analysis.

Setting [6] is: Streptococcus mutans (UA159), μM.

On to `CC(C)[C@@H]1NC(=O)[C@H](CCCN=C(N)N)NC(=O)[C@H](Cc2ccccc2)NC(=O)[C@@H](NC(=O)[C@H](Cc2c[nH]c3ccccc23)NC(=O)[C@H](CCCN=C(N)N)NC(=O)[C@H](CCCN=C(N)N)NC(=O)c2cc(O)c(O)c(O)c2)CSSC[C@@H](C(=O)N[C@@H](CCCN=C(N)N)C(=O)O)NC(=O)[C@H](CCCCN)NC(=O)[C@H](CCCN=C(N)N)NC(=O)[C@H](Cc2ccc(O)cc2)NC(=O)[C@@H]2CSSC[C@H](NC1=O)C(=O)N[C@@H](Cc1ccc(O)cc1)C(=O)N[C@@H](CCCN=C(N)N)C(=O)NCC(=O)N[C@@H](Cc1ccccc1)C(=O)N2` [GAPI, Gallic-Acid-Polyphemusin-I] (HELM PEPTIDE1{[O=C(c1cc(O)c(O)c(O)c1)[*:2]].R.R.W.C.F.R.V.C.Y.R.G.F.C.Y.R.K.C.R}$PEPTIDE1,PEPTIDE1,5:R3-18:R3|PEPTIDE1,PEPTIDE1,9:R3-14:R3$$$V2.0), for which the minimum inhibitory concentration in series [1] and in series [2] (Streptococcus mutans) was 40 µM (≈ 104 µg/mL) each time. The MBC/MFC in series [1] (μM) stood at 160; in series [2] (setting [6]), 80. Also, the MIC in series [1] (μM) and in series [2] (setting [6]) was 40 in each case. Moreover, in series [3], the “stable in saliva (time)” value is “at least 60 min”. In addition, the fraction remaining – broadly, the share of the starting amount still present when the sample was taken – at 0.25 h in series [3] (human, 15 min, read-out: remaining percentage after incubation in human saliva) stood at 98.9%. In series [3] (human, 30 min, read-out: remaining percentage after incubation in human saliva), the amount remaining at 0.5 h amounted to 98.6%. The share remaining at 0.75 h in series [3] (human, 45 min, read-out: remaining percentage after incubation in human saliva) worked out at 96.8%. Also, in series [3] (human, 60 min, read-out: remaining percentage after incubation in human saliva), the amount remaining at 1 h was 94.4%. In series [4] (80, 160, 320 and 640 μM, HGF-1 cells, 24 h), the “optical density values (450 nm, viable cells) versus negative control” value is “no significant difference”. Moreover, in series [4] (CCK-8, 24 h), the “cytotoxicity to HGF-1 cells” value is listed as “low cytotoxicity”. The “Viability: Dead-to-live ratio” value in series [5] (CLSM) is recorded as 0.77±0.13. Besides, in series [5], the “Kinectics: Log10 CFU” value is reported as 7.45±0.32.

The values are drawn from patent US20250090441A1, “ANTI-CARIES PEPTIDES WITH ANTIMICROBIAL AND REMINERALIZING PROPERTIES AND METHODS THEREOF” (THE UNIVERSITY OF HONG KONG, priority 2023, published 2025).
